Measured values from ChEMBL document CHEMBL1150085, “Gummiferol, a cytotoxic polyacetylene from the leaves of Adenia gummifera” (1995).
Converted amounts (≈) assume the structure as drawn.

Legend:
[1] = Cytotoxicity against human BC1 cells; format: functional; conditions: read-out: ED50 (the source's name)
HT = assay: Cytotoxicity against human HT cells; format: functional; conditions: read-out: ED50 (the source's name)
Lu1 = assay: Cytotoxicity against human Lu1 cells; format: functional; conditions: read-out: ED50 (the source's name)
SK-MEL-2 = assay: Cytotoxicity against human SK-MEL-2 cells; format: functional; conditions: read-out: ED50 (the source's name)
Col2 = assay: Cytotoxicity against human Col2 cells; format: functional; conditions: read-out: ED50 (the source's name)
KB [2] = assay: Cytotoxicity against human KB cells; format: functional; conditions: read-out: ED50 (the source's name)
KB [3] = assay: Cytotoxicity against human vinblastine-positive KB cells; format: functional; conditions: read-out: ED50 (the source's name)
KB [4] = assay: Cytotoxicity against human vinblastine-negative KB cells; format: functional; conditions: read-out: ED50 (the source's name)
P388 = assay: Cytotoxicity against mouse P388 cells; format: functional; conditions: read-out: ED50 (the source's name)
A-431 = assay: Cytotoxicity against human A431 cells; format: functional; conditions: read-out: ED50 (the source's name)
LNCaP = assay: Cytotoxicity against human LNCAP cells; format: functional; conditions: read-out: ED50 (the source's name)
ZR-75-1 = assay: Cytotoxicity against human ZR-75-1 cells; format: functional; conditions: read-out: ED50 (the source's name)
[5] = Cytotoxicity against human U373 cells; format: functional, U-373MG ATCC; conditions: U373 MG, read-out: ED50 (the source's name)

## CC(=O)OC/C=C/C1OC1C1OC1C#CC#CC#CCO (stereo not drawn) [GUMMIFEROL]
[1]
  EC50: 0.2 µg/mL (≈ 0.699 µM)
HT
  EC50: 0.1 µg/mL (≈ 0.349 µM)
Lu1
  EC50: 0.9 µg/mL (≈ 3.14 µM)
SK-MEL-2
  EC50: 1.3 µg/mL (≈ 4.54 µM)
Col2
  EC50: 0.6 µg/mL (≈ 2.1 µM)
KB [2]
  EC50: 0.3 µg/mL (≈ 1.05 µM)
KB [3]
  EC50: 0.3 µg/mL (≈ 1.05 µM)
KB [4]
  EC50: 0.4 µg/mL (≈ 1.4 µM)
P388
  EC50: 0.03 µg/mL (≈ 0.105 µM)
A-431
  EC50: 0.5 µg/mL (≈ 1.75 µM)
LNCaP
  EC50: 0.2 µg/mL (≈ 0.699 µM)
ZR-75-1
  EC50: 0.2 µg/mL (≈ 0.699 µM)
[5]
  EC50: 0.05 µg/mL (≈ 0.175 µM)
